Source: ChEMBL document CHEMBL4706623, “GPR52 Antagonist Reduces Huntingtin Levels and Ameliorates Huntington's Disease-Related Phenotypes” (J Med Chem, 2021)

Target: G-protein coupled receptor 52 (Homo sapiens, UniProt Q9Y2T5)
Assay: Antagonist activity at GPR52 (unknown origin) expressed in HEK293 cells assessed as inhibition of WO459-induced cAMP accumulation preincubated for 15 mins followed by WO459 addition and measured after 30 mins by LANCE Ultra cAMP kit based microplate reader analysis; call rule not given here
Assay type: functional, cell-based

Sequence of G-protein coupled receptor 52 (Q9Y2T5 whole entry): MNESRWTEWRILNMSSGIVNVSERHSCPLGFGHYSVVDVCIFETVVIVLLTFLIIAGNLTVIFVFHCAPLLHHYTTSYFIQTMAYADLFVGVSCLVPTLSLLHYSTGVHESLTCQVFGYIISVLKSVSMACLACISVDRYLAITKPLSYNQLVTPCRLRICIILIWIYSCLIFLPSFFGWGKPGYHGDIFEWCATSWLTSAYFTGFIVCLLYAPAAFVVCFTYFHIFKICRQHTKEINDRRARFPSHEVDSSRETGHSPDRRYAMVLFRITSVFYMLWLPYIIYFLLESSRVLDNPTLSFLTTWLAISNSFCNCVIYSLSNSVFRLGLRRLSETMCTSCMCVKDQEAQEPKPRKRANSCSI

IC50 (hek293) | IC50 (read-out: IC50) [nM] | SMILES
Not Active |  | O=C(/C=C/CCc1ccccc1)c1ccc(F)cc1
 | 1490 | COc1cccc(C(=O)/C=C/CCc2ccccc2)c1
 | 7640 | O=C(/C=C/CCc1ccccc1)c1ccc(-c2ccccc2)cc1
 | 1640 | O=C(/C=C/CCc1ccccc1Br)c1ccccc1
 | 1760 | O=C(/C=C/CCc1ccccc1)c1ccccc1F
Not Active |  | CC/C=C/C(=O)c1ccccc1
 | 1520 | O=C(/C=C/CCc1ccccc1)c1ccoc1
 | 1810 | O=C(/C=C/CCc1ccc(Br)cc1)c1ccccc1
 | 3870 | COc1ccc(C(=O)/C=C/CCc2ccccc2)cc1
 | 1820 | O=C(/C=C/CCc1ccccc1)c1ccccn1
 | 2820 | Cc1cccc(C)c1C(=O)/C=C/CCc1ccccc1
 | 2630 | Cc1ccccc1C(=O)/C=C/CCc1ccccc1
